Counter-ions that a name gives are not always drawn.

Sequence of human σ1 receptor (Q99720 whole entry): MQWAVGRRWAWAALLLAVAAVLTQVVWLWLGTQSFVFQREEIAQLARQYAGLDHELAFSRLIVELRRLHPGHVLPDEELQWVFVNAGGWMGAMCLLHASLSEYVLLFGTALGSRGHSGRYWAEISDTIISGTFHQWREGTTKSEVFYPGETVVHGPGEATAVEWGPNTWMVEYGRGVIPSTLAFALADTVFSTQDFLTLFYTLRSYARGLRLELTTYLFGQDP

The first test has as its target human σ1 receptor (Homo sapiens, UniProt Q99720). In words: biochemical. It is filed as binding. On the set-up: μ and σ1 dual binding: key to the marks not given beside the values.
Conditions: not given
Turning to `O=C1N(c2ccccc2)CC2(CCN(CC(O)c3ccccc3)CC2)OC12CC2` (stereo not shown) [Example 277, 8-(2-hydroxy-2-phenylethyl)-12-phenyl-4-oxa-8,12-diazadispiro[2.1.5.3]tridecan-13-one], the Ki was < 100 nM. Consider `Cl.O=C1N(CCCO)CC2(CCN(CCc3ccccc3)CC2)OC12CC2` [Example 279, 12-(3-hydroxypropyl)-8-phenethyl-4-oxa-8,12-diazadispiro[2.1.5.3]tridecan-13-one hydrochloride], for which the “μ and σ1 dual binding” value is “++”.

As for `CC1OC2(CCN(CCc3cccc(OCCO)c3)CC2)CN(c2ccccc2F)C1=O` (stereo not shown) [Example 282, 4-(2-fluorophenyl)-9-(3-(2-hydroxyethoxy)phenethyl)-2-methyl-1-oxa-4,9-diazaspiro[5.5]undecan-3-one], the Ki is < 100 nM. Regarding `O=C1COC2(CCN(CCc3ccc(O)cc3)CC2)CN1c1ccccc1` [Example 290, 9-(4-hydroxyphenethyl)-4-phenyl-1-oxa-4,9-diazaspiro[5.5]undecan-3-one], the “μ and σ1 dual binding” value is on record as “++”.

For the compound `CC1OC2(CCN(CCc3ccccc3)CC2)CN(c2ccc(O)cc2)C1=O` (stereo not shown) [Example 293, 4-(4-hydroxyphenyl)-2-methyl-9-phenethyl-1-oxa-4,9-diazaspiro[5.5]undecan-3-one], the “μ and σ1 dual binding” value is listed as “++”.

Take `CC1OC2(CCN(CCc3ccccc3)CC2)CN(c2cccc(O)c2)C1=O` (stereo not shown) [Example 294, 4-(3-hydroxyphenyl)-2-methyl-9-phenethyl-1-oxa-4,9-diazaspiro[5.5]undecan-3-one]: the “μ and σ1 dual binding” value is listed as “++”.

As for `CC1OC2(CCN(CCc3ccccc3O)CC2)CN(c2ccccc2)C1=O` (stereo not shown) [Example 295, 9-(2-hydroxyphenethyl)-2-methyl-4-phenyl-1-oxa-4,9-diazaspiro[5.5]undecan-3-one], the Ki is < 100 nM. Consider `CC1OC2(CCN(CCc3ccccc3)CC2)CN(c2ccccc2O)C1=O` (stereo not shown) [Example 296, 4-(2-hydroxyphenyl)-2-methyl-9-phenethyl-1-oxa-4,9-diazaspiro[5.5]undecan-3-one], for which the “μ and σ1 dual binding” value was “++”. With `CC(C)C1OC2(CCN(CCc3ccccc3O)CC2)CN(c2ccccc2F)C1=O` (stereo not shown) [Example 297, 4-(2-fluorophenyl)-9-(2-hydroxyphenethyl)-2-isopropyl-1-oxa-4,9-diazaspiro[5.5]undecan-3-one], the Ki was < 100 nM.

Consider `Cl.O=C1COC2(CCN(CCc3ccccc3O)CC2)CN1Cc1ccccn1` [Example 300, 9-(2-hydroxyphenethyl)-4-(pyridin-2-ylmethyl)-1-oxa-4,9-diazaspiro[5.5]undecan-3-one hydrochloride], for which the “μ and σ1 dual binding” value is on record as “++”. In the case of `O=C1C(CCCO)OC2(CCN(CCc3ccccc3)CC2)CN1c1ccccc1F` (stereo not shown) [Example 302, 4-(2-fluorophenyl)-2-(3-hydroxypropyl)-9-phenethyl-1-oxa-4,9-diazaspiro[5.5]undecan-3-one], the Ki was < 500 nM. Same read-out and setting: in the case of `CC1OC2(CCN(CCc3csc(N)n3)CC2)CN(c2ccccc2F)C1=O` (stereo not shown) [Example 303, 9-(2-(2-aminothiazol-4-yl)ethyl)-4-(2-fluorophenyl)-2-methyl-1-oxa-4,9-diazaspiro[5.5]undecan-3-one] it was < 500 nM.

The same test, now with this note: combined class from Ki-σ1 (human σ1 receptor, A1) and Ki-μ (human μ-opioid receptor, A2) radioligand binding.
`CC(C)C1OC2(CCN(CCc3ccccc3OCCO)CC2)CN(c2ccccc2F)C1=O` (stereo not shown) [Example 281, 4-(2-fluorophenyl)-9-(2-(2-hydroxyethoxy)phenethyl)-2-isopropyl-1-oxa-4,9-diazaspiro[5.5]undecan-3-one]: the “μ and σ1 dual binding” value is “++”. Regarding `O=C1COC2(CCN(Cc3ccccc3)CC2)CN1c1ccccc1O` [Example 285, 9-benzyl-4-(2-hydroxyphenyl)-1-oxa-4,9-diazaspiro[5.5]undecan-3-one], the “μ and σ1 dual binding” value is recorded as “++”. As for `O=C1COC2(CCN(CCc3ccccc3)CC2)CN1c1ccccc1O` [Example 286, 4-(2-hydroxyphenyl)-9-phenethyl-1-oxa-4,9-diazaspiro[5.5]undecan-3-one], the “μ and σ1 dual binding” value is listed as “++”. On the same count and under the same terms, the entry for `O=C1COC2(CCN(Cc3ccccc3)CC2)CN1c1cccc(O)c1` [Example 287, 9-benzyl-4-(3-hydroxyphenyl)-1-oxa-4,9-diazaspiro[5.5] undecan-3-one] is “++”; for `Oc1ccc(CCN2CCC3(CC2)CN(c2ccccc2)CCO3)cc1` [Example 292, 4-(2-(4-phenyl-1-oxa-4,9-diazaspiro[5.5]undecan-9-yl)ethyl)phenol] it is “++”; for `O=C1C(CO)OC2(CCN(CCc3ccccc3O)CC2)CN1c1ccccc1F` (stereo not shown) [Example 301, 4-(2-fluorophenyl)-2-(hydroxymethyl)-9-(2-hydroxyphenethyl)-1-oxa-4,9-diazaspiro[5.5]undecan-3-one] it is “++”.

The same test, now with this note: read-out: μ and σ1 dual binding.
In the case of `O=C1COC2(CCN(CC(O)c3ccccc3)CC2)CN1Cc1ccc(C(F)(F)F)cn1` (stereo not shown) [Example 278, 9-(2-hydroxy-2-phenylethyl)-4-((5-(trifluoromethyl)pyridin-2-yl)methyl)-1-oxa-4,9-diazaspiro[5.5]undecan-3-one], the Ki was < 500 nM. Same read-out and setting: in the case of `CC1OC2(CCN(CCc3ccc(N)nc3)CC2)CN(c2ccccc2)C1=O` (stereo not shown) [Example 280, 9-(2-(6-aminopyridin-3-yl)ethyl)-2-methyl-4-phenyl-1-oxa-4,9-diazaspiro[5.5]undecan-3-one] it was > 500 nM; in that of `O=C1C(CO)OC2(CCN(CCc3ccccc3)CC2)CN1c1ccccc1` (stereo not shown) [Example 283, 2-(hydroxymethyl)-9-phenethyl-4-phenyl-1-oxa-4,9-diazaspiro[5.5]undecan-3-one], < 500 nM; in that of `O=C1COC2(CCN(CCc3ccccc3)CC2)CN1Cc1ncc[nH]1` [Example 284, 4-((1H-imidazol-2-yl)methyl)-9-phenethyl-1-oxa-4,9-diazaspiro[5.5]undecan-3-one hydrochloride], > 500 nM. The same measure, in the same setting: the figure for `O=C1COC2(CCN(CCc3ccccc3)CC2)CN1c1cccc(O)c1` [Example 288, 4-(3-hydroxyphenyl)-9-phenethyl-1-oxa-4,9-diazaspiro[5.5]undecan-3-one] is < 500 nM.

As to `O=C1COC2(CCN(CCc3ccccc3O)CC2)CN1c1ccccc1` [Example 289, 9-(2-hydroxyphenethyl)-4-phenyl-1-oxa-4,9-diazaspiro[5.5]undecan-3-one], the Ki is < 500 nM.

Turning to `O=C1COC2(CCN(CCc3cccc(O)c3)CC2)CN1c1ccccc1` [Example 291, 9-(3-hydroxyphenethyl)-4-phenyl-1-oxa-4,9-diazaspiro[5.5]undecan-3-one], the Ki was < 500 nM. For `CC1OC2(CCN(CCc3cccc(O)c3)CC2)CN(c2ccccc2F)C1=O` (stereo not shown) [Example 298, 4-(2-fluorophenyl)-9-(3-hydroxyphenethyl)-2-methyl-1-oxa-4,9-diazaspiro[5.5]undecan-3-one], the Ki was < 100 nM. For the compound `Oc1ccccc1CCN1CCC2(CC1)CN(Cc1ccccc1)CCO2` [Example 299, 2-(2-(4-benzyl-1-oxa-4,9-diazaspiro[5.5]undecan-9-yl)ethyl)phenol], the Ki was < 100 nM. On the same count and under the same terms, the figure for `Nc1nc(CCN2CCC3(CC2)CN(Cc2ccc(C(F)(F)F)cn2)C(=O)CO3)cs1` [Example 304, 9-(2-(2-aminothiazol-4-yl)ethyl)-4-((5-(trifluoromethyl)pyridin-2-yl)methyl)-1-oxa-4,9-diazaspiro[5.5]undecan-3-one] is < 500 nM.

These data come from US10703765B2 (priority 2014, dated 2020).
